ChEMBL document CHEMBL5104193, “Hypoxia-Activated Prodrugs with Dual COX-2/CA Inhibitory Effects on Attenuating Cardiac Inflammation under Hypoxia” (J Med Chem, 2022)
Active and inactive are the calls of the source. No cut-off for these calls is given here.

Key:
[1] = test system: H9c2; assay: Anti-inflammatory activity in LPS/hypoxia induced rat H9c2 cells assessed as reduction of TNF-alpha protein expression at 10 uM in presence of indomethacin by Western blot analysis; type: functional, cell-based
[2] = test system: H9c2; assay: Protection against LPS/hypoxia induced cell injury in rat H9c2 cells assessed as recovery of cell viability in presence of indomethacin by CCK-8 assay (reference value: 69.0%); type: functional
[3] = test system: H9c2; assay: Inhibition of intracellular ROS level in LPS/hypoxia induced rat H9c2 cells in presence of indomethacin and Na2WO4 by DCFH-DA probe based fluorescence confocal microscopy analysis; type: functional, cell-based
[4] = test system: H9c2; assay: Protection against LPS/hypoxia induced cell injury in rat H9c2 cells assessed as recovery of cell viability in presence of indomethacin and Na2WO4 by CCK-8 assay; type: functional, cell-based
[5] = test system: H9c2; assay: Reversal of ATP level in LPS/hypoxia induced rat H9c2 cells in presence of indomethacin and Na2WO4 by multimode plate reader analysis; type: functional, cell-based
[6] = Toxicity in Wistar rat assessed as change in CRE level in presence of indomethacin; details: in vivo
[7] = test system: H9c2; assay: Reversal of LPS/hypoxia induced mitochondrial membrane potential loss in rat H9c2 cells in presence of indomethacin by JC-1 dye based flow cytometry analysis; type: functional, cell-based
[8] = test system: Rattus norvegicus; assay: Antiinflammatory activity in LPS/talc powder induced pericarditic Wistar rat assessed as increase in CK-MB level in serum at 20 mg/kg, ip pretreated for 2 hrs followed by LPS/tal powder stimulation measured after 48 hrs in presence of indomethacin (reference value: 4140+/-256.23 U/L); type: functional; details: time 50 hrs
[9] = test system: H9c2; assay: Inhibition of intracellular ROS level in LPS/hypoxia induced rat H9c2 cells in presence of indomethacin by DCFH-DA probe based fluorescence confocal microscopy analysis; type: functional, cell-based
[10] = test system: H9c2; assay: Protection against LPS/hypoxia induced apoptosis in rat H9c2 cells assessed as reduction in necrotic cells at 10 umol/L incubated for 4 hrs under hypoxia condition in presence of Indomethacin by AnnexinV-FITC/propidium iodide staining based flow cytometry analysis (reference value: 31.02%); type: functional; set-up: scale not given: the % may be the effect or the level left; details: dose 10 µmol/L, at 10 µM
[11] = test system: H9c2; assay: Protection against LPS/hypoxia induced apoptosis in rat H9c2 cells assessed as reduction in green fluorescence in presence of indomethacin by confocal microscopy analysis; type: functional, cell-based
[12] = test system: H9c2; assay: Protection against LPS/hypoxia induced apoptosis in rat H9c2 cells assessed as reduction in red fluorescence by confocal microscopy analysis; type: functional, cell-based
[13] = test system: H9c2; assay: Anti-inflammatory activity in rat H9c2 cells assessed as downregulation of cytochrome C expression at 10 uM by Western blot analysis; type: functional, cell-based
[14] = Toxicity in Wistar rat assessed as change in ALT level in presence of indomethacin; details: in vivo
[15] = test system: H9c2; assay: Reversal of ATP level in LPS/hypoxia induced rat H9c2 cells in presence of indomethacin by multimode plate reader analysis (reference value: 21.37 nmol/mg); type: functional
[16] = test system: H9c2; assay: Anti-inflammatory activity in rat H9c2 cells assessed as inhibition of endogenous IL-6 protein expression in presence of indomethacin by DAPI staining based immunofluorescence analysis; type: functional, cell-based
[17] = test system: NTR; assay: Stability of the compound assessed as NTR (unknown origin) mediated hydrolysis by measuring half life by UV spectrophotometry; type: ADME; details: human, NTR enzyme
[18] = test system: H9c2; assay: Anti-inflammatory activity in LPS/hypoxia induced rat H9c2 cells assessed as increase in VEGF expression at 10 uM in presence of indomethacin by Western blot analysis; type: functional, cell-based
[19] = test system: Rattus norvegicus; assay: Antiinflammatory activity against LPS/talc powder induced pericarditic Wistar rat assessed as reduction in heart swelling at 20 mg/kg, ip pretreated for 2 hrs followed by LPS/tal powder stimulation measured after 48 hrs in presence of indomethacin; type: functional, organism-based; details: time 50.0 hrs
[20] = test system: Rattus norvegicus; assay: Antiinflammatory activity against LPS/talc powder induced pericarditic Wistar rat assessed as elimination of pericardial effusion at 20 mg/kg, ip pretreated for 2 hrs followed by LPS/tal powder stimulation measured after 48 hrs in presence of indomethacin; type: functional, organism-based; details: time 50.0 hrs
[21] = Toxicity in Wistar rat assessed as change in BUN level in presence of indomethacin; details: in vivo
[22] = test system: H9c2; assay: Anti-inflammatory activity in LPS/hypoxia induced rat H9c2 cells assessed as reduction of IL-6 protein expression at 10 uM in presence of indomethacin by Western blot analysis; type: functional, cell-based
[23] = test system: H9c2; assay: Protection against LPS/hypoxia induced apoptosis in rat H9c2 cells assessed as reduction in necrotic cells at 10 umol/L incubated for 4 hrs under hypoxia condition by AnnexinV-FITC/propidium iodide staining based flow cytometry analysis (reference value: 31.02%); type: functional; set-up: scale not given: the % may be the effect or the level left; details: dose 10 µmol/L, at 10 µM
[24] = test system: H9c2; assay: Protection against LPS/hypoxia induced apoptosis in rat H9c2 cells assessed as reduction in red fluorescence in presence of indomethacin by confocal microscopy analysis; type: functional, cell-based
[25] = test system: H9c2; assay: Anti-inflammatory activity in rat H9c2 cells assessed as downregulation of cytochrome C expression at 10 uM in presence of indomethacin by Western blot analysis; type: functional, cell-based
[26] = test system: Rattus norvegicus; assay: Antiinflammatory activity in LPS/talc powder induced pericarditic Wistar rat assessed as increase in cTNI level in serum at 20 mg/kg, ip pretreated for 2 hrs followed by LPS/tal powder stimulation measured after 48 hrs in presence of indomethacin (reference value: 0.167+/-0.025 ng/ml); type: functional; details: time 50 hrs
[27] = test system: H9c2; assay: Reversal of LPS/hypoxia induced mitochondrial membrane potential loss in rat H9c2 cells assessed as increase in JC-1 polymer morphology in presence of indomethacin by JC-1 dye based flow cytometry analysis; type: functional, cell-based; details: time 20.0 min
[28] = test system: Rattus norvegicus; assay: Antiinflammatory activity against LPS/talc powder induced pericarditic Wistar rat assessed as reduction in U wave flattening at 20 mg/kg, ip pretreated for 2 hrs followed by LPS/tal powder stimulation measured after 48 hrs in presence of indomethacin by ECG analysis; type: functional, organism-based; details: time 50.0 hrs
[29] = test system: H9c2; assay: Anti-inflammatory activity in LPS/hypoxia induced cell injury in rat H9c2 cells assessed as reduction of IL-1beta protein expression at 10 uM in presence of indomethacin by Western blot analysis; type: functional, cell-based
[30] = test system: Rattus norvegicus; assay: Antiinflammatory activity against LPS/talc powder induced pericarditic Wistar rat assessed as reduction in torsion T wave inversion at 20 mg/kg, ip pretreated for 2 hrs followed by LPS/tal powder stimulation measured after 48 hrs in presence of indomethacin by ECG analysis; type: functional, organism-based; details: time 50.0 hrs

NS(=O)(=O)c1nnc(NC(=O)CCCCc2cn(CC(=O)O)nn2)s1
Activity [1]: Active | Activity [2]: 91.8% | inhibition [3]: Active | Activity [4]: Active | Activity [5]: Active | Activity [6]: Toxic | Activity [7]: Active | Activity [8]: 2620 U/L | inhibition [9]: Active | Activity [10]: 9.61% | Activity [11]: Active | Activity [12]: Active | Activity [13]: Active | Activity [14]: Toxic | Activity [15]: 47.52 nmol/mg | Activity [16]: Active | half-life [17]: 8.3 min | Activity [18]: Active | Activity [19]: Active | Activity [20]: Active | Activity [21]: Toxic | Activity [22]: Active | Activity [23]: 23.78% | Activity [24]: Active | Activity [25]: Active | Activity [26]: 0.121 ng/mL | Activity [27]: Active | Activity [28]: Active | Activity [29]: Active | Activity [30]: Active
